Assay results taken from patent US7238716B2, “Alkanoic acid derivatives process for their production and use thereof” (Takeda Pharmaceuticals Company Limited, priority 2000, dated 2007).

What was measured:
KKA^y mice = test: Total cholesterol lowering action and plasma anti-arteriosclerosis index enhancing action in mice (Test Example 2); type: in vivo; conditions: Mus musculus, po, 96 h, 0.005% in powdery diet, four days
Excerpt: Test compounds were mixed in a powdery diet (CE-2, Japan Clea) the concentration of 0.01% (compounds of Examples 7, 26, 29 and 32) or 0.005% (compounds of Examples 1, 11, 15, 18, 24, 36, 37, 41, 48, 50, 51, 52, 58, 62, 79, 88, 91, 92, 93, 97, 107, 110, 129 and 130), and freely given to KKA^y mice (11 to 12 weeks old, 5 mice per group), a model of type-2 diabetes mellitus, for four days. During this period, water was given freely. Blood was sampled from orbital venous plexus and components were analyzed using the plasma separated from the blood. Total cholesterol levels were determined by using L type Wako Cholesterol (Wako Pure Chemical Industries, Ltd). Precipitation reagent for HDL cholesterol (Wako Pure Chemical Industries, Ltd.) was added to a part of the plasma to precipitate non-HDL lipoprotein, and cholesterol (HDL cholesterol) in the resulting supernatant was determined. The plasma anti-arteriosclerosis index [(HDL cholesterol/total cholesterol)×100] was calculated by using these cholesterol levels.
In the Table, “Total cholesterol lowering action (%)” represents the percent reduction (%) of total cholesterol level in the test compound administration group, when the total cholesterol level in the test compound non-administration group is taken as 100%. “Plasma anti-arteriosclerosis index-enhancing action (%)” represents the percent increase (%) of plasma anti-arteriosclerosis index in the test compound administration group, when the plasma anti-arteriosclerosis index in the test compound non-administration group is taken as 100%.

melting point: 123 to 125 °C
SMILES: Cc1oc(-c2ccccc2)nc1COc1ccc(COc2ccccc2CC(=O)O)cn1 [Example 41, 2-[2-[[6-[(5-methyl-2-phenyl-4-oxazolyl)methoxy]-3-pyridyl]methoxy]phenyl]acetic acid]
change in vivo at 0.005 % (KKA^y mice; percent increase of [(HDL cholesterol/total cholesterol)×100] vs non-administration group): 28% | inhibition in vivo at 0.005 % (KKA^y mice; percent reduction of plasma total cholesterol level vs non-administration group): 25%
